Measurements reported in patent publication US8852876B2, “Label free biosensors and cells” (Corning Incorporated, priority 2008, dated 2014).
One block for each molecule: values may come before it.

How the values were obtained:
[1] = system: endogenous GPCRs in A431 cells; assay: DMR optical biosensor profiling of GPCR agonists; format: cell-based, human; settings: quiescent A431; first class = Gq-type, second = Gs-type, third = Gi-type, fourth = no significant DMR
P2Y receptors = assay: DMR optical biosensor assay, agonist efficacy; format: cell-based, human; settings: quiescent A431; n=3; read-out: Apparent EC50 (P-DMR amplitude, Gq-type)
adenosine receptors = settings: read-out: Apparent EC50 (slowly increased P-DMR, Gs-type)
A2A receptor = settings: read-out: Affinity; cited from earlier work
[2] = target: T1, Bombesin receptor subtype 1 (BRS1) (Homo sapiens, UniProt P28336); assay: Fluo-3 Ca2+ mobilization assay; format: cell-based; settings: n=5
T1 construct: previously reported to endogenously express in A431 cells; endogenous in cells; host or cells: A431

β2 adrenergic receptor = target: T2, β2 adrenergic receptor (Homo sapiens, UniProt P07550); assay: DMR optical biosensor assay, agonist efficacy; format: cell-based; settings: 10 μM pretreatment; 25 nM epinephrine
T2 construct: A431 endogenously expresses high numbers of β2 receptor; endogenous in cells; host or cells: A431

MC receptors = assay: DMR optical biosensor assay, agonist efficacy; format: cell-based, human; settings: quiescent A431; n=3; read-out: Apparent EC50 (total responses of two P-DMR events)
A3 receptor = target: T3, A3 receptor (Rattus norvegicus, UniProt P28647); settings: read-out: Affinity; cited from earlier work
T3 sequence (P28647 1-320): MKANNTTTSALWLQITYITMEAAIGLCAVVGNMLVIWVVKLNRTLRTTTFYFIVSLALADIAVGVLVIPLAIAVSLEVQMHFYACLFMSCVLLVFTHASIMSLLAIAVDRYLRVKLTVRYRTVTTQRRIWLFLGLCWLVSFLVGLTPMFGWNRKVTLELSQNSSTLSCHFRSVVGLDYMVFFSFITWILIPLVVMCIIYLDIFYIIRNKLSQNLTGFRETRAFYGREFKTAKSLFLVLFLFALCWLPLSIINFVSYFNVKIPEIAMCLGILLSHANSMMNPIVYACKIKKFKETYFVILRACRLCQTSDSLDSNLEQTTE

EGFR = target: T4, EGFR (Homo sapiens, UniProt P00533); assay: EGF-induced DMR response of A431 cells on RWG optical biosensor; format: cell-based; settings: quiescent A431 cells
T4 construct: endogenously over-expressed EGFRs; endogenous in cells; host or cells: A431 (American Type Cell Culture)
Method: (§1) Both A431 and CHO-K1 cells were grown in Dulbecco's modified Eagle's medium (DMEM) supplemented with 10% fetal calf serum, 100 μg/ml penicillin, and 100 μg/ml streptomycin. For cell culture, certain numbers of cells (2×10^5 to 1×10^6), either A431 or CHO-K1, were suspended in […] medium were placed in each well of a 96 well Corning Epic Biosensor microplate, and were cultured at 37° C. in air/5% CO2 for certain time until the cell density reached ˜90% and above (unless specified). The resulted cells were termed as “profilerating” cells. The “quiescent” cells were obtained by culturing the profilerating cells of desired confluencies with a medium containing no or little (˜0.1% fetal bovine serum (FBS)) for at least 16 hours.
During the assays, the cells in 100 μl medium were subject to two 25 μl HBSS buffer containing 20 mM HEPES, pH 7.4, each separated by at least 15 minutes before 50 μl stimulus-containing solution was applied. […] For compound effect studies, a modified protocol was used which starts with 50 μl medium, and subject to sequential treatment: 25 μl HBSS buffer twice (each separated by at least 15 minutes), 50 μl compound solution and finally 50 μl stimulus-containing solution.

CHO cells = assay: EGF stimulation of CHO cells on optical biosensor (DMR); format: cell-based, Chinese hamster; settings: CHO cells incubated with EGF
Method: as §1
The cells, either proliferating or quiescent cells, were either directly used for assays or washed once with the corresponding medium (both result in no obvious difference in cell responses). During the assays, the cells in 100 μl medium were subject to two 25 μl HBSS buffer containing 20 mM HEPES, pH 7.4, each separated by at least 15 minutes before 50 μl stimulus-containing solution was applied. During all these steps, a parallel angular interrogation system was used to monitor the real time kinetics of cellular responses. […]

[3] = system: protease activated receptors PAR1 and PAR2; format: cell-based, human
Outline: (§2)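 A431 cells at passage 3-5 grown in DMEM/10% FBS at 37° C, 5% CO2 to ~95% confluency (~2-4 days). Compounds and PAR agonists prepared in 1×HBSS to match the refractive index of the cell medium for dynamic mass redistribution (DMR) read-out.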

[4] = system: protease activated receptors PAR1 and PAR2; assay: Fluo-3 Ca2+ mobilization assay with PAR agonists; format: cell-based, human; settings: EGF 100 nM; trypsin 100 nM
Outline: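 A431 cells (passage 3–5), serum-starved overnight, loaded with 4 μM Fluo-3 for 1 h in HBSS/20 mM HEPES pH 7.0 with 2.5 mM probenecid. PAR agonist added and calcium fluorescence recorded over 6 min at 6 s intervals, room temperature.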

quiescent A431 cells = assay: mβCD-induced response (cholesterol effluxing) on LID sensor; format: cell-based, human; settings: 20 nM EGF or 1000 nM H7; pretreated at least 40 minutes
Description: The disclosed methods can be used to assay cholesterol transport and to, for example, screen for molecules that effect cholesterol transport, such as effluxing and uptake. […] This method is based on the measurement in real time of the effect of compounds on cholesterol effluxing. Depletion of cholesterol content on cell surface or intracellular pool results in the disappearance of microvilli located in the cell surface, resulting in the flatness of cells adherent on a surface. The flatness of cells leads to a positive DMR phase with increased signal. Based on this biological effect, we use reagents, as markers, that can either extract cholesterol from the cell surface (e.g., methyl-beta-cyclodextrin (mβCD), or high density lipoproteins (HDLs)), or bind or sequester cholesterol on the cell surface (e.g., saponin at relatively low concentrations). The changes obtained using optical biosensors can be used as an indicator of modulators that interfere with the cholesterol effuxing. FIG. 27 provides a schematic of a cholesterol pathway.

[5] = system: EGF-induced response of quiescent A431 cells; assay: Effect of compound pretreatment on EGF-induced DMR response; format: cell-based, human; settings: quiescent A431 cells; 32 nM EGF
Outline: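 A431 cells were made quiescent by ≥16 h culture in no or ~0.1% FBS medium. After two HBSS/20 mM HEPES pH 7.4 buffer additions ≥15 min apart, compound was added and then stimulus. Real-time dynamic mass redistribution was tracked by resonant waveguide biosensor with angular interrogation.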

[6] = target: T5, protease activated receptors PAR1 and PAR2 (Homo sapiens, UniProt P25116); format: cell-based; settings: 40 unit/ml thrombin; modulators 10 μM
T5 construct: A431 cells which endogenously express PAR1 and PAR2; endogenous in cells; host or cells: A431
T5 sequence (P25116 22-425): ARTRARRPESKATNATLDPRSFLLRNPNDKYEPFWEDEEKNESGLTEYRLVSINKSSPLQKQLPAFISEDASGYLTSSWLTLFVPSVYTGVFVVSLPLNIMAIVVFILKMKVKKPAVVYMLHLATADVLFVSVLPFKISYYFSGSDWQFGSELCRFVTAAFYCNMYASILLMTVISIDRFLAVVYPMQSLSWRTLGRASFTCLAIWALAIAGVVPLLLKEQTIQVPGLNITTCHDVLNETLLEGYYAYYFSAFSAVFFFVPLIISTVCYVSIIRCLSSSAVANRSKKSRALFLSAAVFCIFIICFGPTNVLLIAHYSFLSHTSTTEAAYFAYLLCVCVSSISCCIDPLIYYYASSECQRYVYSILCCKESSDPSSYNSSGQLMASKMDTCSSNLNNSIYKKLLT
Outline: as §2

trypsin = assay: BAEE hydrolysis assay; format: biochemical

T1 sequence (P28336 whole entry): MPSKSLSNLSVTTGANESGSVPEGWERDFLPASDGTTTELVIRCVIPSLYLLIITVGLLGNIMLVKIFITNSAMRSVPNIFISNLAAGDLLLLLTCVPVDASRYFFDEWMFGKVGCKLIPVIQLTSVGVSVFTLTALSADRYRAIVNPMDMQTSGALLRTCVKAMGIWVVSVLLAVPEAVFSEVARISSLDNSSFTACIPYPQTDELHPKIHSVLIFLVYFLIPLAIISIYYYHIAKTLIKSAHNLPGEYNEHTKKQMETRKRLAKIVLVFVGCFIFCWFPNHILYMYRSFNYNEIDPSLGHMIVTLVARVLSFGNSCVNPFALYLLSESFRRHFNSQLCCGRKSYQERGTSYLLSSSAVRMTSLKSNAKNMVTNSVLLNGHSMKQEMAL

Molecule: Nc1ncnc2c1ncn2[C@@H]1O[C@H](COP(=O)(O)OP(=O)(O)OP(=O)(O)O)[C@@H](O)[C@H]1O [ATP]
Class of optical signature (DMR) induced by agonist [1]: first class of optical signatures
EC50 (P2Y receptors): 2200 ± 600 nM

Molecule: CCNC(=O)[C@H]1O[C@@H](n2cnc3c(N)ncnc32)[C@H](O)[C@@H]1O [NECA]
Class of optical signature (DMR) induced by agonist [1]: second class of optical signatures
EC50 (adenosine receptors): 21.5 ± 1.2 nM

Maximum increase in intracellular Ca2+ level [2]: 20±5%
Molecule: CSCC[C@H](NC(=O)[C@H](CC(C)C)NC(=O)[C@H](Cc1cnc[nH]1)NC(=O)CNC(=O)[C@@H](NC(=O)[C@H](C)NC(=O)[C@H](Cc1c[nH]c2ccccc12)NC(=O)[C@H](CCC(N)=O)NC(=O)[C@H](CC(N)=O)NC(=O)CNC(=O)[C@H](CC(C)C)NC(=O)[C@H](CCCN=C(N)N)NC(=O)[C@H](CCC(N)=O)NC(=O)[C@@H]1CCC(=O)N1)C(C)C)C(N)=O [bombesin]

Molecule: NKH447
Class of optical signature (DMR) induced by agonist [1]: an optical signature that is similar to those induced by either β2 or A2 agonists
Effect of pretreatment on epinephrine-mediated DMR response (β2 adrenergic receptor): completely abolished the DMR responses mediated by epinephrine

EC50 (MC receptors): 9 ± 1.6 nM
Molecule: α-melanocyte stimulating hormone [α-MSH]
Class of optical signature (DMR) induced by agonist [1]: third class of optical signatures

Molecule: NCCNC(=O)Cc1ccc(NC(=O)Cc2ccc(Nc3ncnc4c3ncn4[C@@H]3O[C@H](CO)[C@@H](O)[C@H]3O)cc2)cc1 [ADAC, adenosine amine cogener]
Ki (A3 receptor): 285 nM

Molecule: epidermal growth factor [EGF]
Kd (EGFR; non-linear regression, read-out: Kd from one-phase decay constant K of the N-DMR signal): 5.76 nM
EC50 (EGFR; read-out: EC50 from amplitudes of the N-DMR signals vs EGF concentration): ~1.45 nM
DMR signals induced by EGF (CHO cells): no clear P-DMR nor B-DMR signal
Effect of preceding stimulation on DMR responses mediated by trypsin or thrombin ([3]; EGF 100 nM, 100 nM trypsin, 40 unit/ml thrombin): totally blocked the N-DMR event, but only attenuated the P-DMR event
Effect of preceding stimulation on trypsin-mediated [Ca2+]i elevation [4]: little effect on the [Ca^2+]i elevation mediated by trypsin
Effect of pretreatment on mβCD-induced response (quiescent A431 cells): significantly suppressed the mβCD-induced response

Molecule: CN([C@@H](Cc1ccc(OS(=O)(=O)c2cccc3cnccc23)cc1)C(=O)N1CCN(c2ccccc2)CC1)S(=O)(=O)c1cccc2cnccc12 [KN 62]
Effect of pretreatment on 32 nM EGF-induced response [5]: little effect on the response
Effect of pretreatment on thrombin-mediated DMR signal [6]: slightly suppressed the thrombin-mediated DMR signal
Effect of pretreatment on trypsin-mediated DMR signal ([3]; 100 or 200 nM trypsin, modulators 10 μM): almost completely abolished the trypsin-mediated DMR signal
Effect on trypsin activity (trypsin): no any obvious effect on the trypsin activity
